In patent US6951833B2, “Anti-microbial compositions” (priority 2002, dated 2005):

How the values were obtained:
LD50 in a mouse = details: in vivo, read-out: dosage reaching the LD50 limit
Text: The upper limit of the amount of the composition of the present invention will depend upon how the extract is made and may be determined by the levels at which toxicity or irritation becomes an issue. Thus, for surface cleansers, very high concentrations can be employed, whereas for skin cleansers, oral care or other products used for direct contact with humans or animals, lower concentrations will be desirable to avoid irritation or toxicity issues. […] Use of the term, “safe amount” herein refers to concentrations which are sufficiently below the above-mentioned amounts to avoid toxic effects in humans or animals.

[1] = test system: a variety of common bacteria; assay: bactericidal amounts for common bacteria; format: cell-based
Text: The composition of the present invention is preferably used in amounts that deliver at least about 2 ppm of anemonin, protoanemonin, diterpenoid alkaloids, or combinations thereof, more preferably, at least about 5 ppm of anemonin, protoanemonin, diterpenoid alkaloids, or combinations thereof, and most preferably at least about 15 ppm of anemonin, protoanemonin, diterpenoid alkaloids, or combinations thereof.

O=C1C=CC2(CCC23C=CC(=O)O3)O1 (stereo not drawn) [anemonin]
LD50 (LD50 in a mouse): 150 mg/kg

C=C1C=CC(=O)O1 [protoanemonin]
LD50 (LD50 in a mouse): 190 mg/kg
amount that is generally bactericidal [1]: 25-200 ppm
